Source: PMC10498670

Columns and labels:
[1] = Multicomponent nitrilium-trapping macrocyclisation: Pro NH + EtCHO (1.5 equiv), Pinc2 (ethyl 2-isocyano-2-(triphenylphosphanylidene)acetate, 1.5 equiv), AcOH (0.1 equiv); carboxylate traps the nitrilium, then Wittig to the oxazole (18 h); details: the molecule shown is the open-chain precursor, 1:1 DCE/MeCN, 25.0 mM, 50.0 °C, 12 steps
[2] = Multicomponent nitrilium-trapping macrocyclisation: Pro NH + EtCHO (1.5 equiv) gives an iminium, Pinc (N-isocyanoimino)triphenylphosphorane (1.2 equiv) adds, C-terminal benzoate traps the nitrilium, then aza-Wittig to the 1,3,4-oxadiazole (18 h); details: the molecule shown is the open-chain precursor, 1:1 DCE/MeCN, 25.0 mM, 50.0 °C, 12 steps

With Cc1c(NC(=O)CNC(=O)[C@H](CC(C)C)NC(=O)[C@H](C)NC(=O)CNC(=O)[C@@H]2CCCN2)cccc1C(=O)O [H-Pro-Gly-Ala-Leu-Gly-(3-amino-2-methylbenzoic acid)-OH] as the molecule, how does the ring closure, overall yield ([1]; 23-membered ring, 18.0 h) read?
Its ring closure, overall yield is 23%.

What about the ring closure, overall yield ([2]; 23-membered ring) of the same molecule?
The ring closure, overall yield was 25%.

With CC(C)C[C@H](NC(=O)CNC(=O)[C@@H]1CCCN1)C(=O)N[C@@H](CC(=O)OC(C)(C)C)C(=O)N[C@H](C(=O)Nc1cccc(C(=O)O)c1)[C@@H](C)OC(C)(C)C [H-Pro-Gly-Leu-Asp(OtBu)-Thr(OtBu)-(3-aminobenzoic acid)-OH] as the molecule, how does the ring closure, overall yield ([1]; 23-membered ring, 18.0 h) read?
The ring closure, overall yield was 21%.

What about the ring closure, overall yield ([2]; 23-membered ring) of the same molecule?
The ring closure, overall yield was 27%.

Which ring closure, overall yield ([1]; 22-membered ring, 18.0 h) does the source give for Cc1cccc(NC(=O)CNC(=O)[C@H](CC(C)C)NC(=O)[C@H](C)NC(=O)CNC(=O)[C@@H]2CCCN2)c1C(=O)O [H-Pro-Gly-Ala-Leu-Gly-(2-amino-6-methylbenzoic acid)-OH] here?
The ring closure, overall yield was 0%.

And the ring closure, overall yield ([2]; 22-membered ring)?
Its ring closure, overall yield is 18%.

With CC(C)C[C@H](NC(=O)[C@H](C)NC(=O)CNC(=O)[C@@H]1CCCN1)C(=O)NCC(=O)Nc1ccccc1C(=O)O [H-Pro-Gly-Ala-Leu-Gly-(2-aminobenzoic acid)-OH] as the molecule, how does the ring closure, overall yield ([1]; 22-membered ring, 18.0 h) read?
Its ring closure, overall yield is 0%.

What about the ring closure, overall yield ([2]; 22-membered ring) of the same molecule?
The ring closure, overall yield was 15%.

With CC(C)C[C@H](NC(=O)[C@H](C)NC(=O)CNC(=O)[C@@H]1CCCN1)C(=O)NCC(=O)Nc1ccc(C(=O)O)c(Cl)c1 [H-Pro-Gly-Ala-Leu-Gly-(4-amino-2-chlorobenzoic acid)-OH] as the molecule, how does the ring closure, overall yield ([1]; 24-membered ring) read?
The ring closure, overall yield was 0%.

And the ring closure, overall yield ([2]; 24-membered ring)?
Its ring closure, overall yield is 17%.

For CC(C)C[C@H](NC(=O)[C@H](C)NC(=O)CNC(=O)[C@@H]1CCCN1)C(=O)NCC(=O)Nc1ccc(C(=O)O)cc1 [H-Pro-Gly-Ala-Leu-Gly-(4-aminobenzoic acid)-OH], which ring closure, overall yield ([1]; 24-membered ring) is on record?
Its ring closure, overall yield is 0%.

And the ring closure, overall yield ([2]; 24-membered ring)?
Its ring closure, overall yield is 18%.

With CC(C)C[C@H](NC(=O)[C@H](C)NC(=O)CNC(=O)[C@@H]1CCCN1)C(=O)NCC(=O)Nc1cccc(C(=O)O)c1 [H-Pro-Gly-Ala-Leu-Gly-(3-aminobenzoic acid)-OH] as the molecule, how does the ring closure, overall yield ([1]; 23-membered ring, 18.0 h) read?
The ring closure, overall yield was 35%.

And the ring closure, overall yield ([2]; 23-membered ring)?
The ring closure, overall yield was 38%.
